# Measured values: US5612369A, “Thrombin inhibitors” (3-Dimensional Pharmaceuticals, Inc., priority 1995, dated 1997)
# pIC50: −log10 of the molar value.
# Experiments:
# factor Xa = experiment: In vitro inhibition of factor Xa (hydrolysis of Bz-Ile-Glu-Gly-Arg-pNa); assay type: biochemical, human; details: at 60 μM inhibitor; factor Xa 10 nM, Bz-Ile-Glu-Gly-Arg-pNa 26 μM, pH 7.5, 37° C.
# Experimental: (§1) The ability of the compounds of the present invention to act as inhibitors of thrombin, factor Xa and plasmin catalytic activity was assessed by determining the concentration which inhibited enzyme activity by 50% using purified human enzymes. The concentration of added inhibitor that caused a 50% decrease in the initial rate of hydrolysis was defined as the IC50 value.
# All assays are based on the ability of the test compound to inhibit the hydrolysis of a peptide p-nitroanilide substrate. In a typical experiment, appropriate substrate is prepared in DMSO, and diluted into an assay buffer consisting of 50ram HEPES and 130 mM NaCl at a pH of 7.5. The final concentration for each of the substrates is listed below. […]
# In a typical IC50 determination, into each well of a 96 well plate is pipetted 280 uL of substrate solution, 10 μL of inhibitor solution, and the plate is allowed to thermally equilibrate at 37° C. in a Molecular Devices Plate Reader for at least 10 minutes. Reactions are initiated by the addition of a 20 μL aliquot of enzyme, and the absorbance increase at 405 nm is recorded for 15 minutes. […] The ratio of the velocity (rate of the change in absorbance as a function of time) for a sample containing no inhibitor is divided by the velocity of a sample containing inhibitor, and is plotted as a function of inhibitor concentration. […]
# human α-thrombin = biological target: T1, human α-thrombin (Homo sapiens, UniProt P00734); experiment: In vitro inhibition of purified thrombin (hydrolysis of Bz-Phe-Val-Arg-pNa); assay type: biochemical; details: for thrombin inhibition, potency and selectivity in words: conclusion from Table 1 (versus factor Xa and plasmin); for pIC50: purified human α-thrombin 36 nM, Bz-Phe-Val-Arg-pNa 66 μM, pH 7.5, 37° C.
# T1 construct: Purified human α-thrombin; purchased Enzyme Research Laboratories, Inc
# Experimental: as §1
# All assays are based on the ability of the test compound to inhibit the hydrolysis of a peptide p-nitroanilide substrate. In a typical experiment, appropriate substrate is prepared in DMSO, and diluted into an assay buffer consisting of 50ram HEPES and 130 mM NaCl at a pH of 7.5. The final concentration for each of the substrates is listed below. All substrate concentrations are at least 10 fold lower than Km to insure inhibition is competitive. Test compounds are prepared as 1 mg/ml solutions in DMSO, and three additional 10-fold dilutions in DMSO are prepared. Enzyme solutions are prepared at the concentrations listed below in assay buffer.
# In a typical IC50 determination, into each well of a 96 well plate is pipetted 280 uL of substrate solution, 10 μL of inhibitor solution, and the plate is allowed to thermally equilibrate at 37° C. in a Molecular Devices Plate Reader for at least 10 minutes. Reactions are initiated by the addition of a 20 μL aliquot of enzyme, and the absorbance increase at 405 nm is recorded for 15 minutes. Data corresponding to less than 10% of the total substrate hydrolysis is used in the calculations. The ratio of the velocity (rate of the change in absorbance as a function of time) for a sample containing no inhibitor is divided by the velocity of a sample containing inhibitor, and is plotted as a function of inhibitor concentration. The inverse of the slope is the concentration of inhibitor which produces a 50% decrease in activity of the enzyme. This concentration is referred to as the IC50.
# Thrombin activity was assessed as the ability to hydrolyse the substrate N-benzoyl-Phe-Val-Arg-p-nitroanilide (Bz-Phe-Val-Arg-pNa), and was obtained from Sigma Chemical Company (St. Louis, Mo.). Substrate solutions were prepared at a concentration of 60 μM (60 μM<<Km =1.2 mM) in assay buffer. Final DMSO concentration was 0.3%. Purified human α-thrombin was obtained from Enzyme Research Laboratories, Inc., and was diluted into assay buffer to a concentration of 1.2 μM. Final reagent concentrations were: [thrombin]=36 nM, [Bz-Phe-Val-Arg-pNa]=66 μM, [inhibitor]=60 to 0.06 μM.
Compound,Factor Xa % Inhibition at 60 μM (factor Xa) [%],"thrombin inhibition, potency and selectivity in words (human α-thrombin)",pIC50 (human α-thrombin)
"COc1cc(CNC(=O)[C@@H]2CCCN2C(=O)[C@H](N)Cc2ccccc2)ccc1O [Compound 7, D-phenylalanyl-N-[2-(4-hydroxy-3-methoxybenzyl)]-L-prolinamide]",0,highly selective and potent inhibitors of thrombin,5.33
"Nc1ccc(CNC(=O)[C@@H]2CCCN2C(=O)[C@@H](Cc2ccccc2)NC(=O)OCc2ccccc2)cc1 [Compound 12, N-CBZ-D-phenylalanyl-N-[2-(4-aminobenzyl)]-L-prolinamide]",–,highly selective and potent inhibitors of thrombin,5.55
"Nc1ccc(CNC(=O)[C@@H]2CCCN2C(=O)[C@H](N)Cc2ccccc2)cc1 [Compound 13, D-phenylalanyl-N-[2-(4-aminobenzyl)]-L-prolinamide]",0,highly selective and potent inhibitors of thrombin,6.00
